Measured values taken from the NIST ThermoML archive (doi:10.1021/acs.jced.5b00813).
Numbers after ± are expanded uncertainties.

Columns and labels:
[1] = xn = mol fraction of the nth substance listed; conditions: 298.15 K, 100 kPa, Liquid, Vibrating tube method
[2] = excess molar enthalpy (molar enthalpy of mixing); xn = mol fraction of the nth substance listed; conditions: 298.15 K, 100 kPa, Liquid, Calvet calorimetry
[3] = refractive index (Na D-line) (dimensionless); conditions: 298.15 K; 101.33 kPa; Liquid; Standard Abbe refractometry
[4] = 298.15 K; 100 kPa; Liquid; Vibrating tube method

COC(C)=O [methyl ethanoate] + CCCC(=O)OC
Conditions | mass density [kg/m3]
[1], x2 = 0 | 927.16 ± 1

COC(C)=O [methyl ethanoate] + CCCCC(=O)OC
Conditions | mass density [kg/m3]
[1], x2 = 0 | 927.16 ± 1

COC(C)=O [methyl ethanoate] + CCCCCCCC
Conditions | excess molar enthalpy [kJ/mol] | mass density [kg/m3]
[1], x2 = 0 | – | 927.16 ± 1
[1], x2 = 0.0493 | – | 901.46 ± 1
[1], x2 = 0.1011 | – | 878.04 ± 1
[1], x2 = 0.1517 | – | 857.91 ± 1
[1], x2 = 0.2033 | – | 839.55 ± 1
[1], x2 = 0.253 | – | 823.66 ± 1
[1], x2 = 0.3008 | – | 809.86 ± 1
[1], x2 = 0.3471 | – | 797.79 ± 1
[1], x2 = 0.3946 | – | 786.15 ± 1
[1], x2 = 0.4523 | – | 773.45 ± 1
[1], x2 = 0.4951 | – | 764.76 ± 1
[1], x2 = 0.5307 | – | 758.11 ± 1
[1], x2 = 0.5777 | – | 749.93 ± 1
[1], x2 = 0.5898 | – | 747.92 ± 1
[1], x2 = 0.6146 | – | 743.98 ± 1
[1], x2 = 0.6388 | – | 740.27 ± 1
[1], x2 = 0.6699 | – | 735.52 ± 1
[1], x2 = 0.7238 | – | 728.1 ± 1
[1], x2 = 0.7841 | – | 720.49 ± 1
[1], x2 = 0.8333 | – | 714.64 ± 1
[1], x2 = 0.8887 | – | 708.75 ± 1
[1], x2 = 0.9311 | – | 704.69 ± 1
[1], x2 = 0.9585 | – | 702.21 ± 1
[2], x2 = 0.0466 | 0.415 ± 0.01 | –
[2], x2 = 0.1009 | 0.813 ± 0.018 | –
[2], x2 = 0.1504 | 1.14 ± 0.024 | –
[2], x2 = 0.2057 | 1.42 ± 0.03 | –
[2], x2 = 0.258 | 1.63 ± 0.035 | –
[2], x2 = 0.3043 | 1.79 ± 0.038 | –
[2], x2 = 0.3516 | 1.91 ± 0.041 | –
[2], x2 = 0.3642 | 1.94 ± 0.041 | –
[2], x2 = 0.3999 | 2 ± 0.043 | –
[2], x2 = 0.446 | 2.04 ± 0.043 | –
[2], x2 = 0.5006 | 2.04 ± 0.043 | –
[2], x2 = 0.5742 | 1.96 ± 0.042 | –
[2], x2 = 0.6631 | 1.74 ± 0.037 | –
[2], x2 = 0.7615 | 1.38 ± 0.03 | –
[2], x2 = 0.8485 | 0.945 ± 0.02 | –
[2], x2 = 0.9324 | 0.448 ± 0.01 | –

CCCCC(=O)OC [methyl pentanoate]
Conditions | mass density [kg/m3] | refractive index
[3] | – | 1.3968 ± 0.0005
[4] | 884.84 ± 1 | –

CCCCC(=O)OC [methyl pentanoate] + CC(C)CC(C)(C)C
Conditions | excess molar enthalpy [kJ/mol] | mass density [kg/m3]
[1], x2 = 0 | – | 884.84 ± 1
[1], x2 = 0.0537 | – | 871.44 ± 1
[1], x2 = 0.1588 | – | 846.38 ± 1
[1], x2 = 0.2505 | – | 825.53 ± 1
[1], x2 = 0.3544 | – | 803.1 ± 1
[1], x2 = 0.4518 | – | 783.06 ± 1
[1], x2 = 0.4984 | – | 773.84 ± 1
[1], x2 = 0.5417 | – | 765.44 ± 1
[1], x2 = 0.642 | – | 746.75 ± 1
[1], x2 = 0.6854 | – | 738.97 ± 1
[1], x2 = 0.7425 | – | 728.98 ± 1
[1], x2 = 0.7967 | – | 719.79 ± 1
[1], x2 = 0.8148 | – | 716.75 ± 1
[1], x2 = 0.8415 | – | 712.32 ± 1
[1], x2 = 0.8779 | – | 706.53 ± 1
[1], x2 = 0.8999 | – | 702.99 ± 1
[1], x2 = 0.9409 | – | 696.52 ± 1
[2], x2 = 0.0438 | 0.144 ± 0.004 | –
[2], x2 = 0.0963 | 0.281 ± 0.006 | –
[2], x2 = 0.1589 | 0.438 ± 0.01 | –
[2], x2 = 0.2206 | 0.574 ± 0.012 | –
[2], x2 = 0.2692 | 0.664 ± 0.014 | –
[2], x2 = 0.3311 | 0.742 ± 0.016 | –
[2], x2 = 0.3825 | 0.801 ± 0.017 | –
[2], x2 = 0.436 | 0.843 ± 0.018 | –
[2], x2 = 0.4818 | 0.866 ± 0.019 | –
[2], x2 = 0.5239 | 0.881 ± 0.019 | –
[2], x2 = 0.5638 | 0.885 ± 0.019 | –
[2], x2 = 0.5679 | 0.884 ± 0.019 | –
[2], x2 = 0.6024 | 0.871 ± 0.019 | –
[2], x2 = 0.6258 | 0.856 ± 0.018 | –
[2], x2 = 0.7031 | 0.789 ± 0.017 | –
[2], x2 = 0.7813 | 0.658 ± 0.014 | –
[2], x2 = 0.8452 | 0.505 ± 0.011 | –
[2], x2 = 0.9243 | 0.297 ± 0.007 | –

CCCCC(=O)OC [methyl pentanoate] + CCCCCCCC
Conditions | excess molar enthalpy [kJ/mol] | mass density [kg/m3]
[1], x2 = 0 | – | 884.84 ± 1
[1], x2 = 0.0514 | – | 872.35 ± 1
[1], x2 = 0.1005 | – | 860.71 ± 1
[1], x2 = 0.161 | – | 846.85 ± 1
[1], x2 = 0.2134 | – | 835.46 ± 1
[1], x2 = 0.2601 | – | 825.47 ± 1
[1], x2 = 0.3084 | – | 815.53 ± 1
[1], x2 = 0.3625 | – | 804.47 ± 1
[1], x2 = 0.4427 | – | 788.93 ± 1
[1], x2 = 0.4558 | – | 786.45 ± 1
[1], x2 = 0.5104 | – | 776.34 ± 1
[1], x2 = 0.5504 | – | 769.1 ± 1
[1], x2 = 0.6116 | – | 758.45 ± 1
[1], x2 = 0.6541 | – | 751.22 ± 1
[1], x2 = 0.7081 | – | 742.25 ± 1
[1], x2 = 0.7535 | – | 734.86 ± 1
[1], x2 = 0.8013 | – | 727.38 ± 1
[1], x2 = 0.8518 | – | 719.71 ± 1
[1], x2 = 0.9059 | – | 711.73 ± 1
[1], x2 = 0.9521 | – | 705.03 ± 1
[2], x2 = 0.0427 | 0.162 ± 0.004 | –
[2], x2 = 0.0951 | 0.337 ± 0.008 | –
[2], x2 = 0.1523 | 0.511 ± 0.011 | –
[2], x2 = 0.2098 | 0.659 ± 0.014 | –
[2], x2 = 0.2677 | 0.784 ± 0.017 | –
[2], x2 = 0.3234 | 0.882 ± 0.019 | –
[2], x2 = 0.377 | 0.956 ± 0.021 | –
[2], x2 = 0.4266 | 1 ± 0.022 | –
[2], x2 = 0.4619 | 1.04 ± 0.022 | –
[2], x2 = 0.4695 | 1.04 ± 0.022 | –
[2], x2 = 0.5113 | 1.05 ± 0.023 | –
[2], x2 = 0.5126 | 1.05 ± 0.023 | –
[2], x2 = 0.5411 | 1.04 ± 0.022 | –
[2], x2 = 0.5701 | 1.04 ± 0.022 | –
[2], x2 = 0.6364 | 0.987 ± 0.021 | –
[2], x2 = 0.709 | 0.888 ± 0.019 | –
[2], x2 = 0.7745 | 0.757 ± 0.016 | –
[2], x2 = 0.8541 | 0.548 ± 0.012 | –
[2], x2 = 0.9325 | 0.229 ± 0.005 | –

CCCCC(=O)OC [methyl pentanoate] + COC(C)=O
Conditions | excess molar enthalpy [kJ/mol] | mass density [kg/m3]
[1], x1 = 0.0496 | – | 922.92 ± 1
[1], x1 = 0.1001 | – | 919.44 ± 1
[1], x1 = 0.1536 | – | 916.04 ± 1
[1], x1 = 0.2027 | – | 913.18 ± 1
[1], x1 = 0.2511 | – | 910.53 ± 1
[1], x1 = 0.3522 | – | 905.55 ± 1
[1], x1 = 0.4013 | – | 903.35 ± 1
[1], x1 = 0.4497 | – | 901.35 ± 1
[1], x1 = 0.4935 | – | 899.62 ± 1
[1], x1 = 0.5444 | – | 897.75 ± 1
[1], x1 = 0.5935 | – | 896.01 ± 1
[1], x1 = 0.6563 | – | 893.98 ± 1
[1], x1 = 0.7383 | – | 891.47 ± 1
[1], x1 = 0.7902 | – | 890.02 ± 1
[1], x1 = 0.843 | – | 888.62 ± 1
[1], x1 = 0.8918 | – | 887.4 ± 1
[1], x1 = 0.9372 | – | 886.3 ± 1
[1], x1 = 1 | – | 884.84 ± 1
[2], x1 = 0.0539 | 0.05 ± 0.002 | –
[2], x1 = 0.113 | 0.096 ± 0.002 | –
[2], x1 = 0.1716 | 0.135 ± 0.003 | –
[2], x1 = 0.2347 | 0.173 ± 0.004 | –
[2], x1 = 0.2915 | 0.198 ± 0.005 | –
[2], x1 = 0.344 | 0.218 ± 0.005 | –
[2], x1 = 0.3954 | 0.231 ± 0.005 | –
[2], x1 = 0.4441 | 0.239 ± 0.005 | –
[2], x1 = 0.5055 | 0.238 ± 0.005 | –
[2], x1 = 0.5754 | 0.228 ± 0.005 | –
[2], x1 = 0.6517 | 0.212 ± 0.005 | –
[2], x1 = 0.7339 | 0.178 ± 0.004 | –
[2], x1 = 0.8188 | 0.126 ± 0.003 | –
[2], x1 = 0.9036 | 0.075 ± 0.002 | –

CCCCCCCC [octane]
Conditions | mass density [kg/m3] | refractive index
[3] | – | 1.3952 ± 0.0005
[4] | 698.58 ± 1 | –

CCCCCCCC [octane] + CCCC(=O)OC
Conditions | mass density [kg/m3]
[1], x1 = 1 | 698.58 ± 1

CCCCCCCC [octane] + CCCCC(=O)OC
Conditions | mass density [kg/m3]
[1], x1 = 1 | 698.58 ± 1

CCCCCCCC [octane] + COC(C)=O
Conditions | mass density [kg/m3]
[1], x1 = 1 | 698.58 ± 1
